# In US9062048B2, “Cyclohexyl-azetidinyl antagonists of CCR2” (Janssen Pharmaceutica NV, priority 2010, dated 2015):
# Biological target: CCR2 (Homo sapiens (Human), UniProt P41597)
# Assay: MCP-1 Receptor Binding Assay in THP-1 Cells;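 further: THP-1 is a human monocytic cell line, and nonspecific binding was defined with 1 µM unlabeled MCP-1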
# Settings: 0.5 nM 125I labeled MCP-1, 2 hours at 30° C., read-out: Inhibition of MCP-1 Binding IC50 MCP1B
# Sequence of CCR2 (P41597 whole entry): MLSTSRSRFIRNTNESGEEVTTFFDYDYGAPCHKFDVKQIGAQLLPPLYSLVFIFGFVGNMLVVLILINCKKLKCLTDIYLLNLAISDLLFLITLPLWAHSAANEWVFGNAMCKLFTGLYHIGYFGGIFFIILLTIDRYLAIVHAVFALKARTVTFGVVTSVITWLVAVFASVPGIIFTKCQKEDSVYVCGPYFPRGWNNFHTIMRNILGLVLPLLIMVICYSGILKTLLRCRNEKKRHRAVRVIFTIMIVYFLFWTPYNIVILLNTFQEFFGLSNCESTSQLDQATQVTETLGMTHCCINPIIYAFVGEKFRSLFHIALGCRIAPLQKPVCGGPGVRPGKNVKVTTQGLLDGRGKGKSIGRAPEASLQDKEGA
row,IC50,SMILES
1,300 nM,"O=C(CNc1ncnc2ccc(C(F)(F)F)cc12)NC1CN([C@H]2CC[C@@H](N3CCC(F)(F)C3)CC2)C1 [Example 131, N-(1-((1s,4s)-4-(3,3-difluoropyrrolidin-1-yl)cyclohexyl)azetidin-3-yl)-2-((6-(trifluoromethyl)quinazolin-4-yl)amino)acetamide]"
2,19 nM,"O=C(CNc1ncnc2ccc(C(F)(F)F)cc12)NC1CN([C@H]2CC[C@@H](C(O)c3cncs3)CC2)C1 (stereo partly drawn) [Example 99, N-(1-((1R,4s)-4-(hydroxy(thiazol-5-yl)methyl)cyclohexyl)azetidin-3-yl)-2-((6-(trifluoromethyl)quinazolin-4-yl)amino)acetamide]"
3,100 nM,"CC(C)[C@H]1CC[C@@H](N2CC(NC(=O)CNc3ncnc4ccc(C(F)(F)F)cc34)C2)CC1 [Example 117, N-(1-((1s,4s)-4-isopropylcyclohexyl)azetidin-3-yl)-2-((6-(trifluoromethyl)quinazolin-4-yl)amino)acetamide]"
4,64 nM,"O=C(CNc1ncnc2ccc(C(F)(F)F)cc12)NC1CN([C@H]2CC[C@@H](N3CCCCO3)CC2)C1 [Example 52, N-(1-((1s,4s)-4-(1,2-oxazinan-2-yl)cyclohexyl)azetidin-3-yl)-2-((6-(trifluoromethyl)quinazolin-4-yl)amino)acetamide]"
5,58 nM,"O=C(CNc1ncnc2ccc(C(F)(F)F)cc12)NC1CN([C@H]2CC[C@@H](CO)CC2)C1 [Example 109, N-(1-((1s,4s)-4-(hydroxymethyl)cyclohexyl)azetidin-3-yl)-2-((6-(trifluoromethyl)quinazolin-4-yl)amino)acetamide]"
6,9 nM,NC(=O)c1cc(NCC(=O)NC2CN([C@H]3CC[C@@](O)(c4cncs4)CC3)C2)c2cc(C(F)(F)F)ccc2n1 [Example 62]
7,1000 nM,"O=C(CNc1ncnc2ccc(C(F)(F)F)cc12)NC1CN([C@H]2CC[C@@H](C(=O)N3CCCC3)CC2)C1 [Example 130, N-(1-((1s,4s)-4-(pyrrolidine-1-carbonyl)cyclohexyl)azetidin-3-yl)-2-((6-(trifluoromethyl)quinazolin-4-yl)amino)acetamide]"
8,350 nM,"O=C(CNc1ncnc2ccc(C(F)(F)F)cc12)NC1CN([C@H]2CC[C@@H](N3CCCO3)CC2)C1 [Example 53, N-(1-((1s,4s)-4-(isoxazolidin-2-yl)cyclohexyl)azetidin-3-yl)-2-((6-(trifluoromethyl)quinazolin-4-yl)amino)acetamide]"
9,37 nM,"CC(=O)NC[C@H]1CC[C@@H](N2CC(NC(=O)CNc3ncnc4ccc(C(F)(F)F)cc34)C2)CC1 [Example 111, N-(1-((1s,4s)-4-(acetamidomethyl)cyclohexyl)azetidin-3-yl)-2-((6-(trifluoromethyl)quinazolin-4-yl)amino)acetamide]"
10,44 nM,"CC[C@@H](O)C1CCC(N2CC(NC(=O)CNc3nccc4ccc(C(F)(F)F)cc34)C2)CC1 (stereo partly drawn) [Example 167, N-(1-((1R,4s)-4-(1-hydroxypropyl)cyclohexyl)azetidin-3-yl)-2-((7-(trifluoromethyl)isoquinolin-1-yl)amino)acetamide]"
11,880 nM,"O=C(CNc1ncnc2ccc(C(F)(F)F)cc12)NC1CN([C@H]2CC[C@@H](C3CCCCC3)CC2)C1 [Example 102, N-(1-((1s,4s)-1^˜1,1′-bi(cyclohexan)1-4-yl)azetidin-3-yl)-2-((6-(trifluoromethyl)quinazolin-4-yl)amino)acetamide]"
12,82 nM,"CC1CCC(N2CC(NC(=O)CNc3ncnc4ccc(C(F)(F)F)cc34)C2)CC1 (stereo not drawn) [Example 119, N-(1-(4-methylcyclohexyl)azetidin-3-yl)-2-((6-(trifluoromethyl)quinazolin-4-yl)amino)acetamide]"
13,753 nM,"CC(C)(C)C(O)[C@H]1CC[C@@H](N2CC(NC(=O)CNc3ncnc4ccc(C(F)(F)F)cc34)C2)CC1 (stereo partly drawn) [Example 98, N-(1-((1R,4s)-4-(1-hydroxy-2,2-dimethylpropyl)cyclohexyl)azetidin-3-yl)-2-((6-(trifluoromethyl)quinazolin-4-yl)amino)acetamide]"
14,640 nM,"CCC(NC(=O)OC)[C@H]1CC[C@@H](N2CC(NC(=O)CNc3ncnc4ccc(C(F)(F)F)cc34)C2)CC1 (stereo partly drawn) [Example 144, methyl ((S)-1-((1s,4R)-4-(3-(2-((6-(trifluoromethyl)quinazolin-4-yl)amino)acetamido)azetidin-1-yl)cyclohexyl)propyl)carbamate]"
15,9.2 nM,"O=C(CNc1cnnc2ccc(C(F)(F)F)cc12)NC1CN([C@H]2CC[C@@](O)(c3cncs3)CC2)C1 [Example 147, N-(1-((1r,4r)-4-hydroxy-4-(thiazol-5-yl)cyclohexyl)azetidin-3-yl)-2-((6-(trifluoromethyl)cinnolin-4-yl)amino)acetamide]"
16,> 25000 nM,"CC(C)[C@@H](O)[C@H]1CC[C@@H](N2CC(NC(=O)CNc3nccc4ncc(C(F)(F)F)cc34)C2)CC1 (stereo in doubt) [Example 155, N-(1-((1R,4s)-4-((S)-1-hydroxy-2-methylpropyl)cyclohexyl)azetidin-3-yl)-2-((3-(trifluoromethyl)-1,6-naphthyridin-5-yl)amino)acetamide]"
17,55 nM,"O=C(CNc1ncnc2ccc(C(F)(F)F)cc12)NC1CN([C@H]2CC[C@@H](c3ccccc3CO)CC2)C1 [Example 73, N-(1-((1s,4s)-4-(2-(hydroxymethyl)phenyl)cyclohexyl)azetidin-3-yl)-2-((6-(trifluoromethyl)quinazolin-4-yl)amino)acetamide]"
18,430 nM,"CC[C@@H](O)[C@H]1CC[C@@H](N2CC(NC(=O)CNc3nccc4ncc(C(F)(F)F)cc34)C2)CC1 (stereo in doubt) [Example 150, N-(1-((1R,4s)-4-((S)-1-hydroxypropyl)cyclohexyl)azetidin-3-yl)-2-((3-(trifluoromethyl)-1,6-naphthyridin-5-yl)amino)acetamide]"
19,7 nM,CC(C)c1nc(NCC(=O)NC2CN([C@H]3CC[C@@](O)(c4cncs4)CC3)C2)c2cc(C(F)(F)F)ccc2n1 [Example 88]
20,130 nM,"O=C(CNc1ncnc2ccc(C(F)(F)F)cc12)NC1CN(C2CCC(C(F)(F)F)CC2)C1 (stereo not drawn) [Example 123, N-(1-(4-(trifluoromethyl)cyclohexyl)azetidin-3-yl)-2-((6-(trifluoromethyl)quinazolin-4-yl)amino)acetamide]"

# The next lines start with the compound.
row,SMILES,IC50
1,"O=C(CNc1ncnc2ccc(C(F)(F)F)cc12)NC1CN(C2CCC(c3ncccc3O)CC2)C1 (stereo not drawn) [Example 1, N-(1-(4-(3-hydroxypyridin-2-yl)cyclohexyl)azetidin-3-yl)-2-((6-(trifluoromethyl)quinazolin-4-yl)amino)acetamide]",4 nM
2,"O=C(CNc1ncnc2ccc(C(F)(F)F)cc12)NC1CN([C@H]2CC[C@@H](C3CCCC3)CC2)C1 [Example 33, N-(1-((1s,4s)-4-cyclopentylcyclohexyl)azetidin-3-yl)-2-((6-(trifluoromethyl)quinazolin-4-yl)amino)acetamide]",140 nM
3,"O=C(CNc1cc(C(F)(F)F)nc2ccc(C(F)(F)F)cc12)NC1CN([C@H]2CC[C@@](O)(c3nccs3)CC2)C1 [Example 24, 2-((2,6-bis(trifluoromethyl)quinolin-4-yl)amino)-N-(1((1r-4r)-4-hydroxy-4-(thiazol-2-yl)cyclohexyl)azetidin-3-yl)acetamide]",28 nM
4,"O=C(CNc1ncnc2ccc(C(F)(F)F)cc12)NC1CN([C@H]2CC[C@@H](C3CCCCO3)CC2)C1 (stereo partly drawn) [Example 14, N-(1-((1S,4s)-4-(tetrahydro-2H-pyran-2-yl)cyclohexyl)azetidin-3-yl)-2-((6-(trifluoromethyl)quinazolin-4-yl)amino)acetamide]",15 nM
5,"CSCC(O)[C@H]1CC[C@@H](N2CC(NC(=O)CNc3ncnc4ccc(C(F)(F)F)cc34)C2)CC1 (stereo partly drawn) [Example 18, N-(1-((1S,4s)-4-(1-hydroxy-2-(methylthio)ethyl)cyclohexyl)azetidin-3-yl)-2-((6-(trifluoromethyl)quinazolin-4-yl)amino)acetamide]",10 nM
6,"CC(C)C(O)[C@H]1CC[C@@H](N2CC(NC(=O)CNc3ncnc4ccc(C(F)(F)F)cc34)C2)CC1 (stereo partly drawn) [Example 7, N-(1-((1S,4s)-4-(1-hydroxy-2-methylpropyl)cyclohexyl)azetidin-3-yl)-2-((6-(trifluoromethyl)quinazolin-4-yl)amino)acetamide]",9 nM
7,"O=C(CNc1ncnc2ccc(C(F)(F)F)cc12)N[C@H]1C[C@@H](N2CCC(O)(c3cncs3)CC2)C1 [Example 161, N-((1s,3s)-3-(4-hydroxy-4-(thiazol-5-yl)piperidin-1-yl)cyclobutyl)-2-((6-(trifluoromethyl)quinazolin-4-yl)amino)acetamide]",> 25000 nM
8,CC(C)C(=O)N(C)[C@H]1CC[C@@H](N2CC(NC(=O)CNc3ncnc4ccc(C(F)(F)F)cc34)C2)CC1 [Example 43],510 nM
9,"O=C(CNc1ncnc2ccc(C(F)(F)F)cc12)NC1CN([C@H]2CC[C@@H](C3COC(=O)N3)CC2)C1 (stereo partly drawn) [Example 16, N-(1-((1R,4s)-4-(2-oxooxazolidin-4-yl)cyclohexyl)azetidin-3-yl)-2-((6-(trifluoromethyl)quinazolin-4-yl)amino)acetamide]",35 nM
10,"CN([C@H]1CC[C@@H](N2CC(NC(=O)CNc3ncnc4ccc(C(F)(F)F)cc34)C2)CC1)S(C)(=O)=O [Example 49, N-(1-((1s,4s)-4-(N-methylmethylsulfonamido)cyclohexyl)azetidin-3-yl)-2-((6-(trifluoromethyl)quinazolin-4-yl)amino)acetamide]",950 nM
11,O=C(CNc1ncnc2ccc(C(F)(F)F)cc12)NC1CN([C@H]2CC[C@@H](C3(O)CC=CC3)CC2)C1 [Example 28],23 nM
12,"O=C(CNc1ncnc2ccc(C(F)(F)F)cc12)NC1CN([C@H]2CC[C@@H](C(O)C3CC3)CC2)C1 (stereo partly drawn) [Example 3, N-(1-((1S,4s)-4-(cyclopropyl(hydroxy)methyl)cyclohexyl)azetidin-3-yl)-2-((6-(trifluoromethyl)quinazolin-4-yl)amino)acetamide]",22 nM
13,"O=C(CNc1ncnc2ccc(C(F)(F)F)cc12)NC1CN([C@H]2CC[C@@H]([C@@H](O)C3CC3)CC2)C1 [(−) 4, N-(1-((1S,4s)-4-(cyclopropyl(hydroxy)methyl)cyclohexyl)azetidin-3-yl)-2-((6-(trifluoromethyl)quinazolin-4-yl)amino)acetamide]",8 nM
